As a reminder, the IC50 is the concentration that inhibits the measured activity by half.

SMILES strings stand for the structures. Where two headings read alike, the source gives them in different places.

Data on five compounds can be found in article PMC10785800, “Molecular Basis for Inhibition of Heparanases and β-Glucuronidases by Siastatin B” (Journal of the American Chemical Society, 2023).

The target of one series is T1, human heparanase (HPSE) (Homo sapiens, UniProt Q9Y251).
T1 construct: endogenous in cells; host or cells: human platelets (lysate)
T1 sequence (Q9Y251 36-543): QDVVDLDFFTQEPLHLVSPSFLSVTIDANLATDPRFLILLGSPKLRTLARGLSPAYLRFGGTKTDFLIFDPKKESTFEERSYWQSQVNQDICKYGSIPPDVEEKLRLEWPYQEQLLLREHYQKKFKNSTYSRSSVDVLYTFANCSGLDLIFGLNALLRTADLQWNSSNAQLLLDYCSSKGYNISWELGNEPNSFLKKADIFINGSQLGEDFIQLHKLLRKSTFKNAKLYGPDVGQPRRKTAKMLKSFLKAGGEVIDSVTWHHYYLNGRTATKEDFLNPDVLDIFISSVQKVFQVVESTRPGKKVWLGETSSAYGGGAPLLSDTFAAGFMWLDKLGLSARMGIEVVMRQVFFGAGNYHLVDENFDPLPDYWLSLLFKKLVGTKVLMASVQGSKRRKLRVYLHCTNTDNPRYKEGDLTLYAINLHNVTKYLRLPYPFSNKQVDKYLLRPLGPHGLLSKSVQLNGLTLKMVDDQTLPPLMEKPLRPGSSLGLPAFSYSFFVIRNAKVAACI
The series is described as follows: Competitive activity-based protein profiling (cABPP) of HPSE in platelet lysate. The format is biochemical. Conditions: cABPP with ABP VB-A69 100 nM, pH 5.0, 1 h preincubation at 37°C. The text has this:
(§1) We next examined whether the synthetic 1-N-iminosugars could inhibit HPSE and human β-glucuronidase. To assess the potency of these inhibitors, we used a competitive activity-based protein profiling (cABPP) assay, that measures the ability of the inhibitor to reduce fluorescent labeling of an enzyme by a fluorescent pan-β-glucuronidase activity-based probe (ABP).[16],[34] Using this cABPP assay, we can simultaneously monitor the inhibition of HPSE and GUSB that are both present in platelet lysates.[6],[29] […] The IC50’s determined for HPSE were greater than that observed for GUSB, which is anticipated for monomer-like inhibitors acting on multisubsite endo-acting enzymes. […] However, the trend that inhibition was improved with the removal of the 3-geminal diol was maintained for both GUSB and HPSE.
(§2) Figure 3 Competitive ABPP of platelet lysate with synthetic iminosugars. Iminosugars 8–11 inhibit both GusB and HPSE present in human platelet lysate. Quantitated fluorescence plots used to determine IC50 values are available in Figure S7. Full length gel images and replicates are available in Figure S8, and Coomassie stained gels are available in Figure S9.
(§3) Figure S7. Inhibition of HPSE and GusB in human platelet lysates by inhibitors 8, 9, 10 and 11. A […]
(§4) normalized quantitated band intensities for HPSE against inhibitor concentration. […]
(§5) Xray diffraction data were collected at 100 K at beamlines i03, i04 and i04-1 of the Diamond Light Source UK. Reflections were autoprocessed using the XIA2 pipeline7. Complexes were solved by directly refining against their unliganded structures where solved using molecular replacement with PHASER4 (search model PDB accessions 5E98 (HPSE), 3VNY (AcGH79), 3K46 (EcGUSB)). Solved […]
(§6) refinement using COOT8 and REFMAC59 respectively. Ligand coordinates were built using jLigand10.
(§7) Diagrams were generated using PyMOL (Delano Scientific). cABPP Labelling experiments:
(§8) ABP labelling reactions were carried out in McIlvaine buffer (pH 5.0), 300 mM NaCl. Labeling reactions were initiated by the addition of ABP VB-A69 to a final concentration of 100 nM, before incubation for 30 min at 37°C with shaking. Following labeling, samples were denatured by boiling with Laemmli buffer for 5 min and resolved by SDS-PAGE. […]
(§9) For competitive ABPP (cABPP) experiments, platelet lysates were preincubated with inhibitor (or buffer only control) in McIlvaine buffer (pH 5.0), 300 mM NaCl for 1 h at 37°C with shaking. […] For quantitative measurements, fluorescently labeled the band intensities were calculated using Imagequant (Cytiva), and normalized to the corresponding band in the inhibitor free control lane. IC50 concentrations were determined by fitting data to the Hill equation: […]

Series [1] addresses T2, E. coli β-glucuronidase (EcGusB) (Escherichia coli, UniProt P05804).
T2 construct: made in house; host or cells: E. coli BL21 Gold (DE3)
The series is described as follows: Inhibition of EcGusB hydrolysis of 4-methylumbelliferyl glucuronide (MU-GlcUA). It is filed as biochemical. The settings on record: for Ki: fluorogenic substrate MU-GlcUA, McIllvane buffer pH 5.0, competitive inhibition model. The source says:
(§10) To assess the potency of the synthesized 1-N-iminosugars, we first turned to the exo-acting β-glucuronidases AcGH79 and EcGusB, whose activity can be readily monitored with the use of the fluorogenic substrate 4-methylumbelliferyl glucuronide (MU-GlcUA). As these β-glucuronidases belong to different families–AcGH79 to the GH79 family and EcGusB to the GH2 family[46]—assessing inhibition with these enzymes also gives some insights into the applicability of these molecules. All four synthesized compounds (8–11) are able to inhibit both enzymes (see Table 1, Figures S5 and S6).
Figure S6. Inhibition kinetics of EcGusB treated with synthetic inhibitors. The inhibition constants for EcGusB treated with A) 11, B) 9, C) 10, and D) 8 were determined. Michaelis-Menten saturation curves were determined in the presence of various concentration of inhibitor (left panel). These curves were fit to a hyperbolic equation, resulting in a Michaelis constant (KM). The KM values were then plotted against the inhibitor concentration (right panel). A linear fit of this plot was then used to determine the inhibition constant (KI).
(§11) (1 picture or pasted object on this page, not shown here)
(§12) Initial rates were determined for AcGH79 and EcGusB hydrolysis of 4-methylumbelliferyl glucuronide in the presence of varying concentrations either commercial or HPLC purified siastatin B to determine inhibitory IC50 concentrations. Reactions contained 20 mM NaCl, 1 % BSA, 60 mM McIllvane Buffer pH 5.0 and 500 µM 4-methylumbelliferyl glucuronide and 0 – 400 µM siastatin B. Assays were initiated by the addition of enzyme to a final concentration of 2 nM. Fluorescence was monitored using a Clariostar plate reader using an excitation wavelength of 365 nm and emission wavelength of 450 nm.
(§13) Assays were performed in quadruplicate and the variation of initial rates with inhibitor concentration […]
(§14) were fit to the Hill equation: with the software program Origin 2019. A=Amax( kn+ [I]n) To determine inhibition constant (Ki) values, Michaelis-Menten parameters were determined for AcGH79 and EcGusB hydrolysis of 4-methylumbelliferyl glucuronide in reactions containing one of the inhibitors 8, 9, 10 or 11. Assays were initiated by the addition of enzyme to the assay mix containing 0-1 mM 4-methylumbelliferyl glucuronide, 20 mM NaCl, 0.1 % BSA, 60 mM McIllvane Buffer pH
(§15) 5.0. Fluorescence was monitored as above. Michaelis constants were determined for at least 3 different inhibitor concentrations for each different inhibitor. Inhibition constants were calculated according to a competitive inhibition model for both inhibitors using the equation : . All K= K(1+ [I]) […]
(§16) kinetic parameters were fit with the software program Origin 2019. […]
(§17) The Journal of Organic Chemistry 2005, 70, 5207-5214.
(§18) Nat Struct Mol Biol 2015, 22 (12), 1016-1022.
(§19) (7) Winter, G. xia2: an expert system for macromolecular crystallography data reduction. Journal of […]

The target in series [2] is T3, human β-glucuronidase (HsGUSB) (Homo sapiens, UniProt P08236).
T3 construct: endogenous in cells; host or cells: human platelets (lysate)
T3 sequence (P08236 23-651): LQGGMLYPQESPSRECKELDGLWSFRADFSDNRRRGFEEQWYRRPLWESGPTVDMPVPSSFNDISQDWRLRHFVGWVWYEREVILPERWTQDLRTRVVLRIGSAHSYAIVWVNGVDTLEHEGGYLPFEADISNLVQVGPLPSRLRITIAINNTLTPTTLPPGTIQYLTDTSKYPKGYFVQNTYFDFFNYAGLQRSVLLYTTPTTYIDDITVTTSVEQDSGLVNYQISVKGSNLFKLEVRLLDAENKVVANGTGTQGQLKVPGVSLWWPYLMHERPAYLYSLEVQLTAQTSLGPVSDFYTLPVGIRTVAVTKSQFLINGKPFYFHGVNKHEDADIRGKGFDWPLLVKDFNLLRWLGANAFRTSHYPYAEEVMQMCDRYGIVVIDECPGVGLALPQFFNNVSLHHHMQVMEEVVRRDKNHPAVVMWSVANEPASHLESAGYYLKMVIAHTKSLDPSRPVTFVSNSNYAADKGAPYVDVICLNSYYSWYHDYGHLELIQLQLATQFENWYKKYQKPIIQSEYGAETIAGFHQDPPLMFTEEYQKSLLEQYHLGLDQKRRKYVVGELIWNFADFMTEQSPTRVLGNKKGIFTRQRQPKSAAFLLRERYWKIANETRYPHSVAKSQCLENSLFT
Put plainly: Competitive activity-based protein profiling (cABPP) of GUSB in platelet lysate. The format is biochemical. The settings on record: cABPP with ABP VB-A69 100 nM, pH 5.0, 1 h preincubation at 37°C.
From the text: as §1, §2, §3, §4, §5, §6, §7, §8, §9

Series [3] deals with T4, Acidobacterium capsulatum β-glucuronidase (AcGH79) (Acidobacterium capsulatum, UniProt C1F2K5).
T4 sequence (C1F2K5 1-475): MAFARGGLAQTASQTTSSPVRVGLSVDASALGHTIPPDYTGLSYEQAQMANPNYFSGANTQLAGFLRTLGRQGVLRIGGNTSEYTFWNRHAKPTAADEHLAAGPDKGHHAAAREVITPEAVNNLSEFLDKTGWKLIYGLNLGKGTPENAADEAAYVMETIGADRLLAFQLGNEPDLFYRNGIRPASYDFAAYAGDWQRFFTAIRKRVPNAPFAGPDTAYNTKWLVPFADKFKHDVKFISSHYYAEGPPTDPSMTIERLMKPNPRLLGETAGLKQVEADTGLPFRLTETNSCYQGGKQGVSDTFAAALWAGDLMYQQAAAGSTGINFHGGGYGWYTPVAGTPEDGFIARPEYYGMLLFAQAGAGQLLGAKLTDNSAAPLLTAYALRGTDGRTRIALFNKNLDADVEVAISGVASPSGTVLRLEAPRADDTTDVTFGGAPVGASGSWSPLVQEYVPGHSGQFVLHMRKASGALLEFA
Put plainly: Inhibition of AcGH79 hydrolysis of 4-methylumbelliferyl glucuronide (MU-GlcUA). The format is biochemical.
From the text: as §10
Figure S5. Inhibition kinetics of AcGH79 treated with synthetic inhibitors. The inhibition constants for AcGH79 treated with A) 11, B) 9, C) 10, and D) 8 were determined. Michaelis-Menten saturation curves were determined in the presence of various concentration of inhibitor (left panel). These curves were fit to a hyperbolic equation, resulting in a Michaelis constant (KM). The KM values were then plotted against the inhibitor concentration (right panel). A linear fit of this plot was then used to determine the inhibition constant (KI).
as §12, §13, §14, §15, §16, §17, §18, §19

The nature of series [4]: Stability of siastatin B by 1H NMR. It is filed as physicochemical. How it is done:
To determine how siastatin B inhibits β-glucuronidases, we first sought to determine whether inhibition was due to the presence of contaminants from either the commercial material or degradation products resulting from prolonged incubation in an aqueous solution or in the presence of a β-glucuronidase.
Supplemental Figures and Tables
Figure S1. Stability of siastatin B. A) 1H NMR experiment showing siastatin B (2 mg) in D2O phosphate buffer (50 mM, 300 mM NaCl, pH 5.0), taken for two different time points (t=0 min and after 18 h). B) Prolonged incubation of siastatin B with recombinant human heparanase. 1H NMR spectra were taken before and after prolonged incubation with 1.2 µM of recombinant human heparanase. The x-axis of […]
as §11

[5] abbreviates: fluorogenic substrate MU-GlcUA, McIllvane buffer pH 5.0, competitive inhibition model, read-out: AcGH79 Ki.
Setting [6] is: 500 µM MU-GlcUA, 0–400 µM siastatin B, pH 5.0.

T2 sequence (P05804 whole entry): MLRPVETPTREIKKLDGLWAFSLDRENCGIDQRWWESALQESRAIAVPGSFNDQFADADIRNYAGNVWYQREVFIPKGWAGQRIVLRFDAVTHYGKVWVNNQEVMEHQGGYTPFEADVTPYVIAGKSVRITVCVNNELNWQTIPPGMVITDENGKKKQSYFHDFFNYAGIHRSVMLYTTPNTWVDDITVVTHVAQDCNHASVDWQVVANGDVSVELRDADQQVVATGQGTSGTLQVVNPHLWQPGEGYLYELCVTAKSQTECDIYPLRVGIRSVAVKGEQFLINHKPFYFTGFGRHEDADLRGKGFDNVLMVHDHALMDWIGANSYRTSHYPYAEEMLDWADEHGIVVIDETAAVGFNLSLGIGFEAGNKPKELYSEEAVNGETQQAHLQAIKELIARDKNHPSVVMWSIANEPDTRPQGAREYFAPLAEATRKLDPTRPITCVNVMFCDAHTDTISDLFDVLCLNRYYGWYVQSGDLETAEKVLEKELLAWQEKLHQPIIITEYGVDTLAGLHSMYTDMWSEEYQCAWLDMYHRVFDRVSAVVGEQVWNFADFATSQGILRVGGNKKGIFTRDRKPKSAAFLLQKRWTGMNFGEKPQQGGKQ

As to `O=C(O)[C@H]1CNCC(O)(O)[C@H]1O` [compound 8], the IC50 on human heparanase (HPSE) is 27 ± 3 µM; in series [2] it was 4 ± 2 µM. For the same compound, the Ki in series [1] stood at 137 ± 3 µM; in series [3] (setting [5]) it was 5.8 ± 0.5 µM.

As for `O=C(O)[C@H]1CNCC(O)(O)[C@@H]1O` [compound 9], the values for the IC50 (at human heparanase (HPSE); in series [2]) were 200 ± 80 µM and 1.7 ± 0.2 µM, respectively. Besides, the Ki in series [1] is 28 ± 1 µM; in series [3] (MU-GlcUA substrate, read-out: inhibition constant for AcGH79), 0.52 ± 0.03 µM.

Take `O=C(O)[C@H]1CNC[C@@H](O)[C@H]1O` [compound 10, galacturonic acid isofagomine]: the IC50 on human heparanase (HPSE) was determined as 8 ± 1 µM; in series [2] it was 0.7 ± 0.04 µM. Besides, the Ki in series [1] amounted to 23 ± 3 µM; in series [3] (setting [5]), 1.5 ± 0.4 µM.

With `O=C(O)[C@H]1CNC[C@@H](O)[C@@H]1O` [compound 11, glucuronic acid isofagomine], the values for the IC50 (on human heparanase (HPSE); in series [2]) were 80 ± 20 µM and 0.6 ± 0.06 µM, respectively. Also, the Ki in series [1] came to 1.5 ± 0.3 µM; in series [3] (setting [5]), 0.022 ± 0.003 µM.

Consider `CC(=O)N[C@H]1NC[C@H](C(=O)O)[C@H](O)[C@@H]1O` [siastatin B, Siastatin B], for which the “stability in aqueous buffer (NMR)” value in series [4] (D2O phosphate buffer 50 mM, 300 mM NaCl, pH 5.0, 18 h) is on record as “no contaminating peaks appeared”. Besides, the “stability on prolonged incubation with recombinant human heparanase (1H NMR)” value in series [4] (heparanase 1.2 μM) is reported as “very minor additional peaks in the 3.2–3.0 range, with no loss in the starting peaks observed”. Moreover, the “inhibition of EcGusB by HPLC-purified material compared with commercial siastatin B” value in series [1] (setting [6]) is “inhibited less”. Moreover, the “inhibition of AcGH79 by HPLC-purified material compared with commercial siastatin B” value in series [3] (setting [6]) is recorded as “inhibited less”.
